Consider 1 molecule from patent US20210228500A1, “CELLULAR RETINOID BINDING PROTEIN ANTAGONISTS AND USES THEREOF” (CASE WESTERN RESRVE UNIVERSITY, priority 2018, published 2021).

Assay [1] deals with T1, RDH5 (Bos taurus, UniProt Q27979).
T1 construct: from tissue; host or cells: bovine RPE microsomes
T1 sequence (Q27979 1-318): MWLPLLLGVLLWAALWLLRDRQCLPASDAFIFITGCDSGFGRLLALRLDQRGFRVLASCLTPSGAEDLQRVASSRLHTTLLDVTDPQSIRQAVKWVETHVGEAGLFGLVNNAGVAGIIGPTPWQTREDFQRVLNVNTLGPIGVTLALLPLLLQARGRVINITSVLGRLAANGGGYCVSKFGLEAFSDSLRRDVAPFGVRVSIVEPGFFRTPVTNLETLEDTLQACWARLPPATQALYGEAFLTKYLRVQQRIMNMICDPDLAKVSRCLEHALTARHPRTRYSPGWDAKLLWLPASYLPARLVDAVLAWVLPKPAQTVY
Nature of the assay: 11-cis-retinol oxidation assay. It counts as biochemical. The note with it: bovine RPE microsomes preincubated with 10-50 μM. The protocol:
Dehydrogenase activity was assayed by monitoring oxidation of 11-cis-retinol to a corresponding aldehyde in bovine RPE microsomes. The reaction mixture containing 20 mM Tris/HCl buffer, pH 8.0, 1% BSA (w/v), 20 μM NAD+, and RPE microsomes (˜100 μg of total protein) in the total volume of 0.1 mL. 11-cis-Retinol (10 μM) was incubated at 30° C. for 10 min. The reaction was stopped by 0.2 mL of methanol that contained 40 mM hydroxylamine. After subsequent 15 min of incubation at RT, the retinoids were extracted with 0.3 mL of hexane and analyzed by normal-phase HPLC as described for the retinol esterification assay.
Thus, to further probe the biological effect of this compound, we tested its effect on the key enzymes of the visual cycle. For this purpose, microsomes isolated from bovine RPE cells were preincubated with 10-50 μM of abn-CBD (1:1 to 1:5 molar excess of cannabinoid) prior to the initiation of the esterification, isomerization, or oxidation reactions by addition of an adequate retinoid substrate.

Assay [2] has as its target T2, holo-CRBP1 (Homo sapiens, UniProt P09455).
T2 construct: made in house
T2 sequence (P09455 1-135): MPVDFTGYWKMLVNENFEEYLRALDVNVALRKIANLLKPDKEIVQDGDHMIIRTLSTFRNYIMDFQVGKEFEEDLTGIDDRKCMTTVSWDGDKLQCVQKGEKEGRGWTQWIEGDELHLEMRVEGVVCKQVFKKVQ
Put plainly: Retinol replacement assay with repurification and LC/MS. It counts as binding. As to the method:
holo-CRBP1 (500 μg) in 0.5 mL (67 μM) was incubated with tested compound (1:2 molar ratio) delivered in ethanol in 20 mM Tris/HCl, pH 8.0, 200 mM NaCl, 5% glycerol (v/v) at RT for 15 min. The sample was then diluted with 10 mM Tris/HCl, pH 8.0 to the final volume of 5 mL, loaded onto HiTrap Q HP column, and eluted as described above. The elution profiles were monitored at both 280 and 325 nm to concurrently record signals for the protein and the retinoid moieties.
After incubation of apo- or holo-CRBP1 with abn-CBD, the protein was repurified on HiTrap Q HP column as described above. The protein fractions were collected, pooled together, and concentrated to 0.25 mL in an Amicon Ultra-4 centrifugal filter, cutoff 10,000 Da. For quantification purpose, 100 pmol of 3d-abn-CBD (internal standard) were added to the protein samples. To extract organic compounds associated with the repurified CRBP1, 0.25 mL of ethanol was added followed by 4 mL of hexane. […] Abn-CBD and its deuterated derivative were detected in the selected reaction monitoring (SRM) mode using m/z 315.2→221.2 and 318.2→224.1 transitions, respectively. Calibration curves were calculated based on the linear relationship between areas under SRM ion intensity for peaks corresponding to abn-CBD and the internal standard versus molar ratios of these compounds in a range from 20 to 500 pmol.

SMILES strings stand for the structures. Entries after “also recorded” stand apart in the source; their conditions may differ.

Regarding `C=C(C)[C@@H]1CCC(C)=C[C@H]1c1c(O)cc(O)cc1CCCCC` [abn-CBD, 4-[(1R,6R)-3-Methyl-6-prop-1-en-2-ylcyclohex-2-en-1-yl]-5-pentylbenzene-1,3-diol], the “effect on enzymatic activity of RDH5” value in assay [1] is recorded as “did not cause a measurable decline”. Moreover, the “loss of atROL from holo-CRBP1 (absorbance at 325 nm)” value in assay [2] (holo-CRBP1 incubated with compound 1:2 molar ratio, repurified) is on record as “diminished absorbance at 325 nm; also recorded: depletion of atROL”. Further, the “replacement of atROL by ligand (ligand/protein quantification)” value in assay [2] (holo-CRBP1 with 2 molar excess of abn-CBD, LC/MS) was “proportional replacement of the retinoid by the cannabinoid”.
